Laboratory results from paper PMC10281575, “PfCRT mutations conferring piperaquine resistance in falciparum malaria shape the kinetics of quinoline drug binding and transport” (PLOS Pathogens, 2023).
“And” between values parts separate entries of the source, which are not always exact repeats. Equal values may be shown once.

Molecular target: T1, PfCRT^Dd2_H97Y (Plasmodium falciparum, UniProt Q8IBZ9, A220S/H97Y/I356T/K76T/M74I/N326S/N75E/Q271E/R371I)
T1 construct: expressed in transfected cells; host or cells: Xenopus laevis oocytes injected with in vitro transcribed RNA (pSP64T)
T1 sequence (Q8IBZ9 1-424 M74I/N75E/K76T/H97Y/A220S/Q271E/N326S/I356T/R371I): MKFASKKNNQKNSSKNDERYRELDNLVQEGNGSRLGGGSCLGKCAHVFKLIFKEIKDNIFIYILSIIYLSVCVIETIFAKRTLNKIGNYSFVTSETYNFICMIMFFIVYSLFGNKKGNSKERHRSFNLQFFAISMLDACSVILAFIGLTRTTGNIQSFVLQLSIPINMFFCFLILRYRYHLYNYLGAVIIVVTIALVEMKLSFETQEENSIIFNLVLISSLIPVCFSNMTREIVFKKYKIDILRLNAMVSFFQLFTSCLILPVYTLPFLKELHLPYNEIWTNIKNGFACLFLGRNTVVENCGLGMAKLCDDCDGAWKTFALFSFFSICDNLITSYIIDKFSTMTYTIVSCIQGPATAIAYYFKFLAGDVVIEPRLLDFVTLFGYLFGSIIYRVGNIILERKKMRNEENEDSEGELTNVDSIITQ
Assay: Radiolabeled drug uptake in X. laevis oocytes expressing PfCRT^Dd2_H97Y
Assay type: cell-based
Conditions: for Vmax, maximal velocity of drug transport / Km: Michaelis-Menten fit, 10-500 μM drug, pH 6; for Km: read-out: KM, Michaelis constant
Text: A codon-optimized coding sequence of the Dd2 isoform of PfCRT (PfCRT^Dd2) was subcloned into the pSP64T expression vector [21]. To generate the necessary mutations to introduce the amino acid substitutions H97Y, F145I, M343L or G353V into the pfcrt sequence, the overlap extension method was used. A region from the 5’-untranslated Xenopus β-globin sequence to the respective 3’ region, containing the full length pfcrt coding sequence, was amplified using the following primer pairs: for the H97Y mutation, numbers 1/4 and 2/3; for the F145I mutation, numbers 1/6 and 2/5; for the M343L mutation, numbers 1/8 and 2/7; and for the G353V mutation, numbers 1/10 and 2/9 (for primers, see S2 Table). Both PCR products were used as template for amplification of the final product using primers number 1/2. The resulting fragment was cloned into the pSP64T expression vector, and the presence of the desired mutation was confirmed by sequencing.
Adult female X. laevis frogs (purchased from NASCO) were anesthetized by submersion in a solution of 0.3% (w/v) 3-amino benzoate methanesulfonate for 15 min. Sections of the ovary were surgically removed and placed in Ca^2+-free ND96 buffer supplemented with 0.1% collagenase D (w/v; Roche), 0.5% BSA (w/v) and 9 mM Na2HPO4 at 18°C for 14–16 h while gently shaking. The oocytes were then washed several times with ND96 buffer (5 mM HEPES, pH 7.5, 96 mM NaCl, 2 mM KCl, 1.8 mM CaCl2, 1 mM MgCl2), supplemented with […] gentamycin. Healthy-looking stage V-VI oocytes were manually selected and randomly grouped for injection. A codon-optimized coding sequence of PfCRT was subcloned into the pSP64T expression vector and subsequently linearized using the restriction endonuclease BamHI or SalI (New England Biolabs GmbH). RNA for injection was transcribed in vitro using the mMESSAGE mMACHINE SP6 Transcription kit (Ambion), diluted with nuclease-free water to a final concentration of 0.6 μg/μL and stored at -80°C. RNA was injected using precision-bore glass capillary tubes (3.5-inch glass capillaries; Drummond Scientific Co.), which were pulled on a vertical puller (P-87 Flaming/Brown micropipette puller, Sutter Instrument Co.) and graduated. The micropipettes were connected to a microinjector (Nanoject II Auto-Nanoliter Injector, Drummond Scientific Co.). Injection was conducted under stereomicroscopic control. 50 nL of nuclease-free water alone (control oocytes) or 50 nL of nuclease-free water containing 30 ng of RNA was injected per oocyte. Injected oocytes were kept for 72 h at 18°C in ND96 buffer with two daily buffer changes before being used for further experiments.
Drug transport assays were performed as previously described. Briefly, measurements of radiolabeled drug uptake were made over 1 h, unless otherwise specified. […] Where specified, one or more unlabeled drugs were also present at the indicated concentrations. […] The uptake assays were terminated by removing the oocytes from the reaction medium and washing them three times with 2 mL of ice-cold ND96 buffer. Each oocyte was transferred to a separate scintillation vial and lysed by the addition of 200 μL of a 5% SDS solution. The radioactivity in the sample was measured using a liquid scintillation analyser Tri-Carb 4910 TR (PerkinElmer). Water-injected oocytes were analyzed in parallel as a negative control. The buffer from each condition was measured in duplicate in parallel to each experiment to transform counts per minute into pmol of drug. Drug uptake attributable to PfCRT was determined by subtracting the background uptake from water-injected oocytes from that of PfCRT-expressing oocytes. In all cases, at least three independent experiments were performed on oocytes from different frogs, and for each condition in an experiment, measurements were made from 10 oocytes per treatment.

SMILES	PfCRTDd2_H97Y-mediated CQ uptake at 10 µM CQ (10 µM CQ, single replicates)	PfCRTDd2_H97Y-mediated CQ uptake at 50 µM CQ (50 µM CQ, single replicates)	PfCRTDd2_H97Y-mediated CQ uptake at 100 µM CQ (100 µM CQ, single replicates)	PfCRTDd2_H97Y-mediated CQ uptake at 300 µM CQ (300 µM CQ, single replicates)	PfCRTDd2_H97Y-mediated CQ uptake at 500 µM CQ (500 µM CQ, single replicates)	Vmax, maximal velocity of drug transport	Km [µM]	PfCRTDd2_H97Y-mediated PPQ uptake at 10 µM PPQ (10 µM PPQ, single replicates)	PfCRTDd2_H97Y-mediated PPQ uptake at 50 µM PPQ (50 µM PPQ, single replicates)	PfCRTDd2_H97Y-mediated PPQ uptake at 100 µM PPQ (100 µM PPQ, single replicates)	PfCRTDd2_H97Y-mediated PPQ uptake at 300 µM PPQ (300 µM PPQ, single replicates)	PfCRTDd2_H97Y-mediated PPQ uptake at 500 µM PPQ (500 µM PPQ, single replicates)
CCN(CC)CCCC(C)Nc1ccnc2cc(Cl)ccc12 (centres unmarked) [CQ, chloroquine]	0.94 pmol oocyte-1 h-1 and 1.60 pmol oocyte-1 h-1 and 1.36 pmol oocyte-1 h-1	8.24 pmol oocyte-1 h-1 and 3.56 pmol oocyte-1 h-1 and 5.41 pmol oocyte-1 h-1 and 4.92 pmol oocyte-1 h-1 and 5.15 pmol oocyte-1 h-1	9.39 pmol oocyte-1 h-1 and 7.90 pmol oocyte-1 h-1 and 6.68 pmol oocyte-1 h-1	13.78 pmol oocyte-1 h-1 and 16.15 pmol oocyte-1 h-1 and 14.38 pmol oocyte-1 h-1	17.49 pmol oocyte-1 h-1 and 19.24 pmol oocyte-1 h-1 and 15.35 pmol oocyte-1 h-1	24 ± 1 pmol oocyte^-1 h^-1	184 ± 16	–	–	–	–	–
Clc1ccc2c(N3CCN(CCCN4CCN(c5ccnc6cc(Cl)ccc56)CC4)CC3)ccnc2c1 [PPQ, piperaquine]	–	–	–	–	–	131 ± 6 pmol oocyte^-1 h^-1 and 183.94 pmol oocyte^-1 h^-1	106 ± 14	12.86 pmol oocyte-1 h-1 and 5.01 pmol oocyte-1 h-1 and 5.38 pmol oocyte-1 h-1	31.25 pmol oocyte-1 h-1 and 73.07 pmol oocyte-1 h-1 and 57.01 pmol oocyte-1 h-1 and 61.85 pmol oocyte-1 h-1 and 37.57 pmol oocyte-1 h-1 and 17.78 pmol oocyte-1 h-1	97.03 pmol oocyte-1 h-1 and 61.02 pmol oocyte-1 h-1 and 41.93 pmol oocyte-1 h-1 and 45.11 pmol oocyte-1 h-1	103.79 pmol oocyte-1 h-1 and 76.95 pmol oocyte-1 h-1 and 76.45 pmol oocyte-1 h-1 and 130.46 pmol oocyte-1 h-1	133.65 pmol oocyte-1 h-1 and 96.27 pmol oocyte-1 h-1 and 74.35 pmol oocyte-1 h-1 and 131.71 pmol oocyte-1 h-1
